Assays:
Assay in all cases: Field trial Europe (Experiment A1), pre-emergence weed control in maize
Type in all cases: in vivo
Setaria viridis = conditions: BOLOGNA, 54DAT
Method: (§1) The following experiments were conducted on Compound A and Compound B in various field research stations in Europe during May. Compound A (as a 750 g/kg water dispersible granule formulation) and Compound B (as a 600 g/kg water dispersible granule formulation) were tested at the following dose rates (note that hereafter ai means active ingredient): Compound A : 50, 75, 100, 125 g ai/ha Compound B : 240, 360, 480, 600 g ai/ha Compound A + Compound B : 50 + 240/360/480 g ai/ha 75 + 240/360/480 g ai/ha 100 + 240/360/480 g ai/ha Trial and application conditions are given below in Table 1 (in the Tables that follow DAT means days after treatment): Table 1 [table] Weeds were drilled on the same day as maize. All trials were sprayed pre-emergence of the maize on the same day as drilling or within 2 days afterwards. Soil conditions were warm and wet, so that the crop and weeds emerged and grew quickly. Rainfall or irrigation occurred within 15 days of application. In this Table "Obs" is the observed value the value in brackets (Exp) is the expected value calculated using the Colby formula.

Polygonum lapathifolium = conditions: CHAZAY, 64DAT
Method: as §1

Echinochloa crus-galli = tested on: Echinochloa crus-galli
Method: as §1

Amaranthus retroflexus = conditions: ALZONNE, 46DAT
Method: as §1

Q: CS(=O)(=O)c1cc(C(F)(F)F)ccc1C(=O)c1cnoc1C1CC1 [Cpd A, 5-cyclopropyl-4-(2-methylsulphonyl-4-trifluoromethyl)benzoylisozaxole] was tested. Which “percentage phytotoxicity Obs” value (Setaria viridis; Cpd A 50 g a.i./ha) did it give?
A: 62%

Q: And the “percentage phytotoxicity Obs” value (Setaria viridis; Cpd A 75 g a.i./ha)?
A: 82%

Q: And the “percentage phytotoxicity Obs” value (Setaria viridis; Cpd A 100 g a.i./ha)?
A: 82%

Q: What about the “percentage phytotoxicity Obs” value (Setaria viridis; Cpd A 125 g a.i./ha) of the same molecule?
A: 97%

Q: And the “percentage phytotoxicity Obs” value (Polygonum lapathifolium; Cpd A 50 g a.i./ha)?
A: 50%

Q: And the “percentage phytotoxicity Obs” value (Polygonum lapathifolium; Cpd A 75 g a.i./ha)?
A: 90%

Q: What about the “percentage phytotoxicity Obs” value (Polygonum lapathifolium; Cpd A 100 g a.i./ha) of the same molecule?
A: 70%

Q: And the “percentage phytotoxicity Obs” value (Polygonum lapathifolium; Cpd A 125 g a.i./ha)?
A: 95%

Q: What about the “percentage phytotoxicity Obs” value (Echinochloa crus-galli; ALZONNE, 46DAT, Cpd A 50 g a.i./ha) of the same molecule?
A: 45%

Q: And the “percentage phytotoxicity Obs” value (Echinochloa crus-galli; ALZONNE, 46DAT, Cpd A 75 g a.i./ha)?
A: 35%

Q: What about the “percentage phytotoxicity Obs” value (Echinochloa crus-galli; ALZONNE, 46DAT, Cpd A 100 g a.i./ha) of the same molecule?
A: 82%

Q: And the “percentage phytotoxicity Obs” value (Echinochloa crus-galli; ALZONNE, 46DAT, Cpd A 125 g a.i./ha)?
A: 85%

Q: And the “percentage phytotoxicity Obs” value (Echinochloa crus-galli; BOLOGNA, 54DAT, Cpd A 50 g a.i./ha)?
A: 77%

Q: What about the “percentage phytotoxicity Obs” value (Echinochloa crus-galli; BOLOGNA, 54DAT, Cpd A 75 g a.i./ha) of the same molecule?
A: 91%

Q: And the “percentage phytotoxicity Obs” value (Echinochloa crus-galli; BOLOGNA, 54DAT, Cpd A 100 g a.i./ha)?
A: 75%

Q: And the “percentage phytotoxicity Obs” value (Echinochloa crus-galli; BOLOGNA, 54DAT, Cpd A 125 g a.i./ha)?
A: 100%

Q: What about the “percentage phytotoxicity Obs” value (Amaranthus retroflexus; Cpd A 50 g a.i./ha) of the same molecule?
A: 72%

Q: And the “percentage phytotoxicity Obs” value (Amaranthus retroflexus; Cpd A 75 g a.i./ha)?
A: 70%

Q: What about the “percentage phytotoxicity Obs” value (Amaranthus retroflexus; Cpd A 100 g a.i./ha) of the same molecule?
A: 80%

Q: What about the “percentage phytotoxicity Obs” value (Amaranthus retroflexus; Cpd A 125 g a.i./ha) of the same molecule?
A: 95%

Q: What does the source list for CC(C)N(C(=O)COc1nnc(C(F)(F)F)s1)c1ccc(F)cc1 [Cpd B, N-isopropyl-(5-trifluoromethyl-1,3,4-thiadiazol-2-yl)-4-(4'-fluoro-oxyacetanilide)]?
A: percentage phytotoxicity Obs (Setaria viridis; Cpd B 240 g a.i./ha): 85%; percentage phytotoxicity Obs (Setaria viridis; Cpd B 360 g a.i./ha): 82%; percentage phytotoxicity Obs (Setaria viridis; Cpd B 480 g a.i./ha): 86%; percentage phytotoxicity Obs (Setaria viridis; Cpd B 600 g a.i./ha): 82%; percentage phytotoxicity Obs (Polygonum lapathifolium; Cpd B 240 g a.i./ha): 25%; percentage phytotoxicity Obs (Polygonum lapathifolium; Cpd B 360 g a.i./ha): 0%; percentage phytotoxicity Obs (Polygonum lapathifolium; Cpd B 480 g a.i./ha): 25%; percentage phytotoxicity Obs (Polygonum lapathifolium; Cpd B 600 g a.i./ha): 40%; percentage phytotoxicity Obs (Echinochloa crus-galli; ALZONNE, 46DAT, Cpd B 240 g a.i./ha): 45%; percentage phytotoxicity Obs (Echinochloa crus-galli; ALZONNE, 46DAT, Cpd B 360 g a.i./ha): 65%; percentage phytotoxicity Obs (Echinochloa crus-galli; ALZONNE, 46DAT, Cpd B 480 g a.i./ha): 77%; percentage phytotoxicity Obs (Echinochloa crus-galli; ALZONNE, 46DAT, Cpd B 600 g a.i./ha): 90%; percentage phytotoxicity Obs (Echinochloa crus-galli; BOLOGNA, 54DAT, Cpd B 240 g a.i./ha): 35%; percentage phytotoxicity Obs (Echinochloa crus-galli; BOLOGNA, 54DAT, Cpd B 360 g a.i./ha): 52%; percentage phytotoxicity Obs (Echinochloa crus-galli; BOLOGNA, 54DAT, Cpd B 480 g a.i./ha): 65%; percentage phytotoxicity Obs (Echinochloa crus-galli; BOLOGNA, 54DAT, Cpd B 600 g a.i./ha): 75%; percentage phytotoxicity Obs (Amaranthus retroflexus; Cpd B 240 g a.i./ha): 30%; percentage phytotoxicity Obs (Amaranthus retroflexus; Cpd B 360 g a.i./ha): 10%; percentage phytotoxicity Obs (Amaranthus retroflexus; Cpd B 480 g a.i./ha): 67%; percentage phytotoxicity Obs (Amaranthus retroflexus; Cpd B 600 g a.i./ha): 45%

Source: EP0796041B1, “NEW HERBICIDAL COMPOSITIONS” (RHONE-POULENC AGRO, priority 1994, dated 1996)
